No end group written: not given here.
Tests used:
[1] = molecular target: DRB1_0701 (Homo sapiens, UniProt P01903+P01911, A100R/A102G/A103Q/D57E/D86V/E43K/F76Y/K127E/L162R/M171V/P40G/Q125H/Q99D/R33Q/R42Y/R54Q/S133A/S66F/T210M/V115G/Y107V/Y59L/Y89S); experiment: Competitive MHC class II binding assay, DRB1_0701;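 also: displacement of a radiolabeled reference peptide from purified HLA class II protein, with complex-bound radioactivity counted after 2–4 days of incubation and six concentrations spanning a 100,000-fold range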
[2] = molecular target: DRB1_0802 (Homo sapiens, UniProt P01903+P01911, A100R/A103L/A169T/F76Y/H45Y/I96F/K41T/L162R/M171V/P40S/Q125H/Q178H/Q39Y/Q99D/R218S/R42G/S66Y/V115G/W38E); experiment: Competitive MHC class II binding assay, DRB1_0802
[3] = molecular target: DRB1_1101 (Homo sapiens, UniProt P01903+P01911, A100R/A169T/A87E/I96F/K41T/L162R/M171V/P40S/Q125H/Q178H/Q39Y/Q99D/R42S/S66Y/T262R/V115G/W38E); experiment: Competitive MHC class II binding assay, DRB1_1101
[4] = molecular target: DRB5_0101 (Homo sapiens, UniProt P01903+Q30154); experiment: Competitive MHC class II binding assay, DRB5_0101
[5] = molecular target: T1, DPA10103-DPB10201 (Homo sapiens, UniProt P04440+P20036, A65V/A84D/A85E/K98E); experiment: Competitive MHC class II binding assay, DPA10103-DPB10201
T1 sequence (P20036 29-260): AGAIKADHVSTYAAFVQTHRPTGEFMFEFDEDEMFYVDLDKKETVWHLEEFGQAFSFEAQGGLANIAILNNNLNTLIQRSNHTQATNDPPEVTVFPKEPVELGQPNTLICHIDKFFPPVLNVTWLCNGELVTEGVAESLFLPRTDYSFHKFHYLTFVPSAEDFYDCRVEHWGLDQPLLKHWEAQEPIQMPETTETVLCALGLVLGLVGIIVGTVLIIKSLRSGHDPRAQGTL
T1 sequence (P04440 30-258 A65V/A84D/A85E/K98E): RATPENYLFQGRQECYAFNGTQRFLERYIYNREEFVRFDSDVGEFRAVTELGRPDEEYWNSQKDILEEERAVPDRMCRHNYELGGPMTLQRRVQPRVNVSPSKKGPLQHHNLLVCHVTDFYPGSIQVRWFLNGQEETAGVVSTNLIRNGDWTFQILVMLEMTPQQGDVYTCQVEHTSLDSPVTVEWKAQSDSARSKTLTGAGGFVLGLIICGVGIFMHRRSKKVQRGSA

[6] = molecular target: T2, DPA10103-DPB10301 (Homo sapiens, UniProt P04440+P20036, A65V/A84D/A85E/E86D/F38Y/G113D/G114E/G40L/I94L/L37V/M105V/M116V/P115A/R125K/T199I); experiment: Competitive MHC class II binding assay, DPA10103-DPB10301
T2 sequence (P20036 29-260): T1 sequence (P20036 29-260)
T2 sequence (P04440 30-258 L37V/F38Y/G40L/A65V/A84D/A85E/E86D/I94L/M105V/G113D/G114E/P115A/M116V/R125K/T199I/V234M): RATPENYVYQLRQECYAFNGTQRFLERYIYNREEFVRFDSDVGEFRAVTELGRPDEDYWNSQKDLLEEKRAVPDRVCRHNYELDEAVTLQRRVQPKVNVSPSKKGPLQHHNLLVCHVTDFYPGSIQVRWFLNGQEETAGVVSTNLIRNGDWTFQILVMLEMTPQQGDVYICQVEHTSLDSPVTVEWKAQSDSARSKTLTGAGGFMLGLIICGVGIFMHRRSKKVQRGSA

[7] = Solubility of peptides in aqueous solutions at different pH (visual inspection, OD, HPLC); assay type: physicochemical; conditions: Table 11a; evaluated by visual inspection
Source text: This example describes modifications of parent peptides to improve the aqueous solubility, in particular to increase the solubility in an aqueous solution having pH in a physiologically acceptable range, e.g. from 6 to 8. Solubility is closely related to the ratio between hydrophilic and hydrophobic amino acid residues and the net charge state of the peptide. Peptides have zero net charge at pH=pI, and would be expected to show the lowest solubility at this pH. […] The solubility of these peptides was increased at pH values outside the physiological range (data not shown).
Peptides were tested for their ability to dissolve in aqueous solutions at different pH values. In short, each of the peptides were dissolved in water (pH about 5-6), hydrochloride solution at pH 2 (10 mM HCl), acetate buffer with pH 5 (20 mM acetate and 140 mM sodium chloride), phosphate buffer with pH 7 (20 mM phosphate and 140 mM sodium chloride) or bistrispropate buffer with pH 9 (20 mM bitrispropane and 140 mM sodium chloride, respectively, to produce a final molar concentration of the peptide of about 0.25 mM or 1 mM. Optionally, about 20% DMSO may be part of the solution. For comparison reasons, peptides were also dissolved in acetonitrile or DMSO. The solutions were inspected visually before and after centrifugation for turbidity, presence of particles/aggregates. In addition, presence of turbidity/particles/aggregates were detected by optical density (OD), but might also be detected by size-exclusion chromatography. Sub-visual particles may also be detected by dynamic light scattering (DLS) analysis. The solubility and stability of each peptide were also investigated using HPLC, e.g. RP-HPLC. For example, each of the solutions were injected onto the HPLC and the peak height or peak area of each of the peptides were compared to the corresponding peptide of a chromatogram of peptides dissolved in acetonitrile or DMSO—as peptides were assumed to be fully dissolved and stable in these solvents.

[8] = molecular target: DQA10101-DQB10501 (Homo sapiens, UniProt P01909+P01920, A157S/A45G/A70V/C70R/D89V/E106S/E118A/E183D/E77G/F83G/G63E/H151Q/H199R/H252R/H253Q/I129T/I235V/I88M/INS77G/K197Q/L107V/L117V/L119Y/L178F/L71W/L74F/L85Q/L91A/L98M/M46L/N214S/P87R/Q116E/Q256R/Q57E/Q76K/R102G/R240Q/R75S/R78G/S102Y/S185I/S41F/S97I/T103A/T109R/T121G/T122I/T172A/T86R/V148I/V68A/V73E/Y34C/Y58G/Y62H); experiment: Competitive MHC class II binding assay, DQA10101-DQB10501; conditions: positive binding at cutoff 1000 nM; read-out: HLA-DQA10101-DQB10501
[9] = molecular target: DRB1_0101 (Homo sapiens, UniProt P01903+P01911, A100R/D57E/F55L/F60I/F76Y/I96L/L162R/M171V/P40L/Q125E/R42F/V115G/Y59C); experiment: Competitive MHC class II binding assay, DRB1_0101;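 also: competition against a radiolabeled probe peptide (0.1–1 nM) for purified HLA class II protein over 2–4 days, bound counts read after antibody capture, six competitor levels across 100,000-fold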
[10] = molecular target: DRB1_0901 (Homo sapiens, UniProt P01903+P01911, A100R/A103E/D57H/D86V/F55Y/F60I/F76Y/I96F/K127E/L162R/M171V/P40D/Q125H/Q99R/R33Q/R42F/S133A/S66N/T210M/V115G/W38K/Y107V/Y59G/Y89S); experiment: Competitive MHC class II binding assay, DRB1_0901;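 also: displacement of a radiolabeled probe peptide from purified HLA class II protein, bound counts read after two to four days incubation, six concentrations spanning 100,000-fold, unlabeled probe as reference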
[11] = molecular target: DRB1_1302 (Homo sapiens, UniProt P01903+P01911, A100E/A169T/K41T/L162R/M171V/P40S/Q125H/Q178H/Q39Y/Q99D/R42S/S66N/T262R/V115G/W38E/Y61H); experiment: Competitive MHC class II binding assay, DRB1_1302;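 also: purified HLA class II protein incubated two to four days with a radiolabeled reference binder and test peptide at six concentrations over a 100,000-fold range, complex-bound radioactivity counted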
[12] = molecular target: DRB3_0202 (Homo sapiens, UniProt P01903+P79483, A212P/D57E/F66Y/L67A/R103Q/R218S/R40L/S89Y/T80R/V86D/Y55F/Y59H); experiment: Competitive MHC class II binding assay, DRB3_0202
[13] = molecular target: DRB1_0401 (Homo sapiens, UniProt P01903+P01911, A100K/A169T/F76Y/I96L/K127E/L162R/M171V/N62H/P40V/Q125Y/R42H/S133A/S149N/S66Y/V115G/V209L/W38E); experiment: Competitive MHC class II binding assay, DRB1_0401
[14] = molecular target: DRB1_0405 (Homo sapiens, UniProt P01903+P01911, A100R/A169T/D86S/F76Y/I96L/K127E/L162R/M171V/N62H/P40V/Q125Y/R42H/S133A/S149N/S66Y/V115G/V209L/W38E); experiment: Competitive MHC class II binding assay, DRB1_0405
[15] = molecular target: DRB1_1501 (Homo sapiens, UniProt P01903+P01911); experiment: Competitive MHC class II binding assay, DRB1_1501
[16] = molecular target: DRB4_0101 (Homo sapiens, UniProt P01903+P13762, G164S); experiment: Competitive MHC class II binding assay, DRB4_0101
[17] = molecular target: DQA10501-DQB10201 (Homo sapiens, UniProt P01909+P01920, A45G/A70V/D89A/E106A/E77G/E98D/H199R/L107V/N214S/P84L/P87L/T103K/T109R/T172A/T60S/V78E/V99I/Y58L/Y62S/Y69I/Y79F); experiment: Competitive MHC class II binding assay, DQA10501-DQB10201
[18] = molecular target: DRB1_1201 (Homo sapiens, UniProt P01903+P01911, A100R/A169T/D57E/D86V/F55L/H45Y/K41T/L162R/M171V/P40S/Q125H/Q178H/Q39Y/Q99D/R42G/S66L/T262R/V114A/V67L/W38E/Y59H/Y61H/Y89S); experiment: Competitive MHC class II binding assay, DRB1_1201
[19] = molecular target: DRB1_0301 (Homo sapiens, UniProt P01903+P01911, A100K/A102G/A103R/A169T/F55Y/I96L/K41T/L162R/M171V/P40S/Q125H/Q178H/Q39Y/R42S/S66N/T106N/T262R/W38E/Y61H); experiment: Competitive MHC class II binding assay, DRB1_0301
[20] = molecular target: DRB3_0101 (Homo sapiens, UniProt P01903+P79483); experiment: Competitive MHC class II binding assay, DRB3_0101

| Sequence | IC50 [1] | IC50 [2] | IC50 [3] | IC50 [4] | IC50 [5] | IC50 [6] | Solubility at pH 7 [7] | IC50 [8] | IC50 [9] | IC50 [10] | IC50 [11] | IC50 [12] | IC50 [13] | IC50 [14] | IC50 [15] | IC50 [16] | IC50 [17] | IC50 [18] | IC50 [19] | IC50 [20] |
| --- | --- | --- | --- | --- | --- | --- | --- | --- | --- | --- | --- | --- | --- | --- | --- | --- | --- | --- | --- | --- |
| VQESYYRYVAREQSSRRPNAQ [pep-124] | < 1000 nM | < 1000 nM | < 1000 nM | < 1000 nM | < 1000 nM | < 1000 nM | – | – | – | – | – | – | – | – | – | – | – | – | – | – |
| KGQQYDIKYTWNVPKIA [pep-126] | < 1000 nM | < 1000 nM | – | < 1000 nM | – | < 1000 nM | Clear | < 1000 nM | < 1000 nM | < 1000 nM | < 1000 nM | < 1000 nM | – | – | – | – | – | – | – | – |
| ATESAYLAYRNTSLD [pep-022] | < 1000 nM | < 1000 nM | – | – | – | – | – | < 1000 nM | < 1000 nM | < 1000 nM | – | – | < 1000 nM | < 1000 nM | < 1000 nM | – | – | – | – | – |
| HRGKPFQLEAVFEANQNTKT [pep-091] | – | < 1000 nM | – | – | < 1000 nM | – | – | < 1000 nM | < 1000 nM | < 1000 nM | < 1000 nM | < 1000 nM | – | < 1000 nM | – | < 1000 nM | < 1000 nM | – | – | – |
| QESYYRYVAREQSSRR [pep-122] | < 1000 nM | < 1000 nM | < 1000 nM | < 1000 nM | – | < 1000 nM | – | – | < 1000 nM | < 1000 nM | – | < 1000 nM | < 1000 nM | < 1000 nM | – | – | – | < 1000 nM | – | – |
| QESYYRYVAREQSSRRPNAQ [pep-050] | – | – | < 1000 nM | < 1000 nM | – | < 1000 nM | – | – | – | – | – | – | < 1000 nM | – | – | – | – | – | < 1000 nM | – |
| DLRQMRTVTPIRMQGGSGS [HDM203B, reference compound] | < 1000 nM | < 1000 nM | < 1000 nM | < 1000 nM | < 1000 nM | < 1000 nM | – | – | < 1000 nM | < 1000 nM | < 1000 nM | – | < 1000 nM | < 1000 nM | < 1000 nM | < 1000 nM | – | < 1000 nM | < 1000 nM | – |
| KSENVVVTVKLVGDNGVLAS [pep-109] | – | < 1000 nM | < 1000 nM | – | – | – | – | – | – | – | < 1000 nM | – | < 1000 nM | – | – | < 1000 nM | – | – | < 1000 nM | < 1000 nM |
